In patent publication US7488720B2, “A1 adenosine receptor agonists” (CV Therapeutics, Inc., priority 2005, dated 2009):

Assay: Blood brain penetration assay (in situ brain perfusion)
Type: in vivo
Details: rat in situ brain perfusion, 5 μM, 1 min, left cerebrum
Description: Studies of transport of the compounds of Formula I were carried out in accordance with an in situ brain perfusion technique disclosed in “Methods in Molecular medicine, Vol. 89, pp209-218, by Quentin R. Smith and David D. Allen
Anesthesia: Cocktail of 90 mg/kg ketamine/9 mg/kg xylazine was given at a volume of […] as i.m. injection.
Surgery and perfusion: The left common carotid artery was cannulated, the chest opened and the heart severed. The brain was perfused at 10 ml/min for a predetermined duration of time, followed by post-perfusion with perfusion solution for 30 seconds.
A stock solution of the test drug was prepared as a solution of […] in DMSO.
C. Treatment • 1. Three rats per group were infused with the study compounds or a control compound via the left common carotid artery. • 2. Brain and perfusion solution samples were obtained at the end of the perfusions. D. Sample Collection • 1. Brains were collected and the left hemispheres or regions thereof were segmented and flash frozen in liquid nitrogen. • 2. A sample of the perfusion solution was also taken after each perfusion into an Eppendorf tube, and stored at −80° C. in separate container from the brain samples. • 3. When necessary, prior to the perfusion, blood samples were collected in tubes prepared with study anticoagulant. Whole blood was centrifuged at 8000 rpm for 3 minutes. Plasma was collected into Eppendorf tubes and frozen at −80° C. in separate container from the brain samples. E. Analytical and Data Analysis
Concentrations of study and marker compounds in all samples was measured using LC/MS-MS (and/or LC-UV technique when applicable) and permeability kinetics were determined.

| rate of penetration of the blood brain barrier | SMILES |
| --- | --- |
| 61.5 pmol/g/s | CN(C)CCCN1c2ccccc2Sc2ccc(Cl)cc21 [Chlorpromazine, reference compound] |
| 0.10 pmol/g/s | O=C(CS(=O)(=O)O)NCc1nc(NC2CCCC2)c2ncn([C@@H]3O[C@H](CO)[C@@H](O)[C@H]3O)c2n1 [Example 6B, N-({9-[(4S,2R,3R,5R)-3,4-dihydroxy-5-(hydroxymethyl)oxolan-2-yl]-6-(cyclopentylamino)purin-2-yl}methyl)carbamoylmethylsulfonic acid] |
| 0.015 pmol/g/s | O=C(NCc1nc(NC2CCCC2)c2ncn([C@@H]3O[C@H](CO)[C@@H](O)[C@H]3O)c2n1)c1ccc(S(=O)(=O)O)cc1 [Example 6A, 4-[N-({9-[(4S,2R,3R,5R)-3,4-dihydroxy-5-(hydroxymethyl)oxolan-2-yl]-6-(cyclopentylamino)purin-2-yl}methyl)carbamoyl]benzenesulfonic acid] |
